How the values were obtained:
[1] = target: T1, human adenosine A3 receptor (Homo sapiens, UniProt P0DMS8); test: Reporter gene (CRE/SPAP) agonist assay in CHO cells, adenosine A3 receptor; conditions: CHO cells with human A3 receptor; inhibition of forskolin-stimulated SPAP production; potency relative to NECA=1
T1 sequence (P0DMS8 1-318): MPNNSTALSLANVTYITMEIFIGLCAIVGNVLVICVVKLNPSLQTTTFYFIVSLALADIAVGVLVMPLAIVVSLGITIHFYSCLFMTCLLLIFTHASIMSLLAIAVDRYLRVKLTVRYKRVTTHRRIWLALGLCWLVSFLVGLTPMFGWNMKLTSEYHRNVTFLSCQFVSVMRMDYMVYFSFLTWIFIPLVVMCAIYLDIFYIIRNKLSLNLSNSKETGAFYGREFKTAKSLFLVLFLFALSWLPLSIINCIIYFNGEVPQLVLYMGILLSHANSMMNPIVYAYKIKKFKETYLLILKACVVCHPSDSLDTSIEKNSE

[2] = target: T2, human adenosine A1 receptor (Homo sapiens, UniProt P30542); test: Reporter gene (CRE/SPAP) agonist assay in CHO cells, adenosine A1 receptor; assay type: cell-based; conditions: CHO cells with human A1 receptor; inhibition of forskolin-stimulated SPAP production; potency relative to NECA=1
T2 construct: expressed in transfected cells; host or cells: Chinese hamster ovary (CHO) cells containing CRE/SPAP/HYG reporter elements
T2 sequence (P30542 1-326): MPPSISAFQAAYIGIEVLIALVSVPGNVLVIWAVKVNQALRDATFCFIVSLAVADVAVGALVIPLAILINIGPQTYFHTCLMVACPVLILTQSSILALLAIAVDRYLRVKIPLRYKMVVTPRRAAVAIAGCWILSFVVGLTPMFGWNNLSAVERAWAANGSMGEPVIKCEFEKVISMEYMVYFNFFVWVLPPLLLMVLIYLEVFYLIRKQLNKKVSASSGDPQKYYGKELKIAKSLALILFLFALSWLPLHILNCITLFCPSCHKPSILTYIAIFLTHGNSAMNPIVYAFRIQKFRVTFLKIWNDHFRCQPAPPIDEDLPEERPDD
Procedure: Agonist activity was measured in Chinese hamster ovary (CHO) cells containing the CRE/SPAP/HYG (CRE=cyclic AMP response element; HYG=hygromycin resistance; SPAP=secreted placental alkaline phosphatase) reporter gene elements, which upon stimulation of cAMP levels produced SPAP. A cell line was used, which was stably transfected with either the human adenosine A1 receptor or the human adenosine A3 receptor in addition to the above elements. Cells were plated out in 96-well plates in culture medium and incubated at 37° C. for 1 hour. […] All cells were then incubated for a further 5 hours at 37° C., and cooled to room temperature, after which a substrate for the phosphatase (para-nitrophenol phosphate, pNPP), which is converted by SPAP to a coloured reagent) was then added and the 96-well plates were read in a plate reader. From these readings, the concentration-dependence of the inhibition by the agonist for forskolin-stimulated SPAP production can be calculated.
(ECR=equipotent concentration ratio relative to NECA=1)

A3 ECR (equipotent concentration ratio relative to NECA=1) [1] | A1 ECR (equipotent concentration ratio relative to NECA=1) [2] | melting point [°C] | Compound
284.5 | 24.10 |  | OCC(O)CNc1ncnc2c1ncn2[C@@H]1O[C@H](COC(F)(F)F)[C@@H](O)[C@H]1O (relative stereo) [Example 20, N-(rel-2,3-Dihydroxy-propyl)-5′-O-trifiuoromethyl-adenosine]
>129 | 8.40 |  | O[C@@H]1[C@H](O)[C@@H](COC(F)(F)F)O[C@H]1n1cnc2c(NC3CCOCC3)ncnc21 [Example 1, N-(Tetrahydro-pyran-4-yl)-5′-O-trifluoromethyladenosine]
 | 185.5 |  | O[C@@H]1[C@H](O)[C@@H](COC(F)(F)F)O[C@H]1n1cnc2c(NCCc3ccncc3)ncnc21 [Example 2, N-(2-Pyridin-4-yl-ethyl)-5′-O-trifluoromethyladenosine]
81.6 | 80.7 |  | Nc1ncnc2c1ncn2[C@@H]1O[C@H](COC(F)(F)F)[C@@H](O)[C@H]1O [Example 4, 5′-O-Trifluoromethyladenosine]
>212 | 33.2 |  | CNS(=O)(=O)CCNc1ncnc2c1ncn2[C@@H]1O[C@H](COC(F)(F)F)[C@@H](O)[C@H]1O [Example 5, 2-[9-(3R,4S-Dihydroxy-5R-trifluoromethoxymethyl-tetrahydro-furan-2R-yl)-9H-purin-6-ylamino]-ethanesulfonic Acid Methylamide]
7.7 | 8.70 | 74 to 76 | O[C@@H]1[C@H](O)[C@@H](COCC(F)(F)F)O[C@H]1n1cnc2c(NC3CCCC3)ncnc21 [Example 6, N-Cyclopentyl-5′-O-(2,2,2-trifluoro-ethyl)-adenosine]
 | 239.40 |  | O[C@@H]1[C@H](O)[C@@H](COCC(F)(F)F)O[C@H]1n1cnc2c(N[C@@H]3CCC[C@H]3O)ncnc21 [Example 8, N-(2R-Hydroxy-cyclopent-(R)-yl)-5′-O-(2,2,2-trifluoro-ethyl)-adenosine]
19.7 | 298 |  | O[C@@H]1[C@H](O)[C@@H](COCC(F)(F)F)O[C@H]1n1cnc2c(Nc3ccc(F)cc3)ncnc21 [Example 9, N-(4-Fluoro-phenyl)-5′-O-(2,2,2-trifluoro-ethyl)-adenosine]
>276 | 11.1 |  | O[C@@H]1[C@H](O)[C@@H](COC(F)(F)F)O[C@H]1n1cnc2c(NC3CCSCC3)ncnc21 [Example 13, N-(Tetrahydro-thiopyran-4-yl)-5′-O-trifluoromethyl-adenosine]
197.3 | 20.50 |  | O[C@@H]1[C@H](O)[C@@H](COC(F)(F)F)O[C@H]1n1cnc2c(Nc3ccc(F)c(F)c3)ncnc21 [Example 14, N-(3,4-Difluoro-phenyl)-5′-O-trifluoromethyl-adenosine]
 | 23.2 |  | O[C@@H]1[C@H](O)[C@@H](COC(F)(F)F)O[C@H]1n1cnc2c(Nc3cccc(F)c3)ncnc21 [Example 15, N-(3-Fluoro-phenyl)-5′-O-trifluoromethyl-adenosine]
>207 | 79.50 |  | O=S1(=O)CCC(Nc2ncnc3c2ncn3[C@@H]2O[C@H](COC(F)(F)F)[C@@H](O)[C@H]2O)CC1 [Example 16, N-(1,1-Dioxo-hexahydro-1δ6-thiopyran-4-yl)-5′-O-trifluoromethyl-adenosine]
>175 | 12.52 |  | CC(=O)NCCNc1ncnc2c1ncn2[C@@H]1O[C@H](COC(F)(F)F)[C@@H](O)[C@H]1O [Example 23, N-{2-[9-(3R,4S-Dihydroxy-5R-trifluoromethoxymethyl-tetrahydro-furan-2R-yl)-9H-purin-6-ylamino]-ethyl}-acetamide]
 | 32 |  | Cc1nc(NC2CCOCC2)c2ncn([C@@H]3O[C@H](COC(F)(F)F)[C@@H](O)[C@H]3O)c2n1 [Example 25, 2-Methyl N-(tetrahydro-pyran-4-yl)-5′-O-trifluoromethyl-adenosine]

Compound | A3 ECR (equipotent concentration ratio relative to NECA=1) [1] | A1 ECR (equipotent concentration ratio relative to NECA=1) [2] | melting point [°C]
O[C@@H]1[C@H](O)[C@@H](COC(F)(F)F)O[C@H]1n1cnc2c(NC3CC4CCC3C4)ncnc21 (stereo partly drawn) [Example 3, N-(exo-Bicyclo[2.2.1]hept-2-yl)-5′-O-trifluoromethyl-adenosine] | 143.5 |  | 
O[C@@H]1[C@H](O)[C@@H](COC(F)(F)F)O[C@H]1n1cnc2c(N[C@H]3CCC[C@@H]3F)ncnc21 [Example 12, N-(2S-Fluoro-cyclopent-(S)-yl)-5′-O-trifluoromethyl-adenosine] | >226 |  | 
CC(C)(C)Nc1ncnc2c1ncn2[C@@H]1O[C@H](COC(F)(F)F)[C@@H](O)[C@H]1O [Example 17, N-tert-Butyl-5′-O-trifiuoromethyl-adenosine] | >207 |  | 
CCOC(=O)N1CCC(Nc2ncnc3c2ncn3[C@@H]2O[C@H](COC(F)(F)F)[C@@H](O)[C@H]2O)CC1 [Example 18, 4-[9-(3R,4S-Dihydroxy-5R-trifluoromethoxymethyl-tetrahydro-furan-2R-yl)-9H-purin-6-ylamino]-piperidine-1-carboxylic Acid Ethyl Ester] | >202 | 5.32 | 
O[C@@H]1[C@H](O)[C@@H](COC(F)(F)F)O[C@H]1n1cnc2c(N[C@H]3CCC[C@@H]3O)ncnc21 [Example 19, N-(2S-Hydroxy-cyclopent-(S)-yl)-5′-O-trifluoromethyl-adenosine] | >150 |  | 
O[C@@H]1[C@H](O)[C@@H](COC(F)(F)F)O[C@H]1n1cnc2c(N[C@@H]3CCOC3)ncnc21 [Example 21, N-(Tetrahydro-furan-3R-yl)-5′-O-trifluoromethyl-adenosine] | >175 |  | 
O[C@@H]1[C@H](O)[C@@H](COC(F)(F)F)O[C@H]1n1cnc2c(N[C@H]3CCOC3)ncnc21 [Example 22, N-(Tetrahydro-furan-3S-yl)-5′-O-trifluoromethyl-adenosine] | >63 |  | 
CCOC(=O)N1CCC(Nc2nc(C)nc3c2ncn3[C@@H]2O[C@H](COC(F)(F)F)[C@@H](O)[C@H]2O)CC1 [Example 24, 4-[9-(3R,4S-Dihydroxy-5R-trifluoromethoxymethyl-tetrahydro-furan-2R-yl)-2-methyl-9H-purin-6-ylamino]-piperidine-1-carboxylic Acid Ethyl Ester] | >134 | 51.70 | 

— patent publication US6407076B1, “Adenosine analogues and related method of treatment” (SmithKline Beecham Corporation, priority 1997, dated 2002)
